The source of these data is patent publication US20240025906A1 (NEURON23, INC., priority 2022, published 2024).

SMILES strings stand for the structures. Like-named read-outs stand apart in the source and are kept apart here.

In assay [1] the test system is JAK1/TYK2 pSTAT5 (Tyr694/699) in THP-1 cell line. Nature of the assay: IFNa-stimulated JAK1/TYK2 pSTAT5 (Tyr694/699) inhibition cellular assay, AlphaLISA. Format: cell-based. To be noted: THP-1 cells, AlphaLISA (Assay B), read-out: Cellular_THP1_IFNa-pSTATS_TYK2. In outline: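 THP-1 cells (2e4/well) in HBSS preincubated 1 h at 37° C. with compound (final 10000–0.04 nM, 8 points, 6-fold), then stimulated with IFNa (100 ng/mL stock) for 30 min before lysis. pSTAT5 (Tyr694/699) read by AlphaLISA at 615 nm; IC50 from four-parameter logistic fit with bottom fixed at 0 and Hill slope at −1.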

Assay [2] deals with T1, TYK2 JH2 (Homo sapiens, UniProt P29597).
T1 construct: purchased DiscoverX (KINOMEscan KdELECT service); host or cells: E. coli BL21-derived (T7 phage display) or HEK-293
T1 sequence (P29597 589-875 limits assumed): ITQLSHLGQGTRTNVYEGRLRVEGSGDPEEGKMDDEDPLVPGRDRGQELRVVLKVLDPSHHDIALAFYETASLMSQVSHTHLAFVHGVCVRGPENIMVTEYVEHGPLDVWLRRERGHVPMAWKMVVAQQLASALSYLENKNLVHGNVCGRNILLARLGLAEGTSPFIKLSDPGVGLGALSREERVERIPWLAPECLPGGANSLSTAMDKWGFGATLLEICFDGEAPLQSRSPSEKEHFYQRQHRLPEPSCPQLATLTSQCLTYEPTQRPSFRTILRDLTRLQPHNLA
Nature of the assay: TYK2 JH2 binding assay (KINOMEscan KdELECT competitive binding). To be noted: TYK2 JH2 domain, KINOMEscan KdELECT (Assay A); read-out: Biochemical TYK2_DiscoverX_JH2_BND_Kd. An outline of the steps: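 Competition binding, KdELECT format. Kinase (phage-tagged, E. coli BL21-derived host; or HEK-293, DNA-tagged) + ligand-coated streptavidin beads + cpd, 1 h RT, final DMSO 0.9%. Wash, elute 30 min with 0.5 μM non-biotinylated ligand; qPCR readout. Kd: 11-pt, 3-fold series.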

Setting [3] is: Homo sapiens, IFNa-stimulated pSTAT5 (Tyr694/699).
Where [4] appears, read: IFNa-stimulated pSTAT5 (Tyr694/699).

For `CNc1ncc(C#Cc2ccc3c(c2)CC[C@H](COC)O3)c2cc(NC(=O)C3CC3)ncc12` (single isomer, unassigned) [Example 988], in assay [1] (Homo sapiens, IFNa-stimulated), the IC50 was at most 500 nM. For the same compound, the Kd in assay [2] is at most 100 nM.
Regarding `CNc1ncc(C#Cc2ccc3c(c2)CC[C@@H](COC)O3)c2cc(NC(=O)C3CC3)ncc12` (single isomer, unassigned) [Example 989], in assay [1] (Homo sapiens, IFNa-stimulated), the IC50 was at most 500 nM. Further, the Kd in assay [2] was at most 100 nM.
As to `CNc1ncc(-c2nc3ccc(N4CCOCC4)cn3n2)c2cc(NC(=O)[C@@H]3CC3(F)F)ncc12` (single isomer, unassigned) [Example 994], the IC50 in assay [1] (Homo sapiens, IFNa-stimulated) is at most 500 nM. Moreover, the Kd in assay [2] is at most 100 nM.
Take `CNc1ncc(-c2nc3ccc(N4CCOC(COC)C4)cn3n2)c2cc(NC(=O)C3CC3)ncc12` (single isomer, unassigned) [Example 1023]: the IC50 in assay [1] (setting [3]) is at most 500 nM. The Kd in assay [2] is at most 100 nM.
In the case of `CNc1ncc(-c2nc3ccc(N4CCOC(COC)C4)cn3n2)c2cc(NC(=O)C3CC3)ncc12` (single isomer, unassigned) [Example 1024], the IC50 in assay [1] (setting [4]) was at most 500 nM. In addition, in assay [2], the Kd is at most 100 nM.
As for `CNc1ncc(-c2nc3ccc(N4CCO[C@@H]([C@H](C)O)C4)cn3n2)c2cc(NC(=O)C3CC3)ncc12` (single isomer, unassigned) [Example 1044], the IC50 in assay [1] (setting [3]) is at most 500 nM. Besides, the Kd in assay [2] is at most 100 nM.
Taken in the same sequence, the figures for `CNc1ncc(-c2nc3ccc(N4CCO[C@H]([C@@H](C)O)C4)cn3n2)c2cc(NC(=O)C3CC3)ncc12` (single isomer, unassigned) [Example 1045] were at most 500 nM and at most 100 nM.
As for `CNc1ncc(-c2nc3ccc(N4CCO[C@@H]([C@@H](C)O)C4)cn3n2)c2cc(NC(=O)C3CC3)ncc12` (single isomer, unassigned) [Example 1046], the IC50 in assay [1] (setting [3]) is at most 500 nM. Also, in assay [2], the Kd is at most 100 nM.
Regarding `CNc1ncc(-c2nc3ccc(N4CCO[C@H]([C@H](C)O)C4)cn3n2)c2cc(NC(=O)C3CC3)ncc12` (single isomer, unassigned) [Example 1047], the IC50 in assay [1] (setting [3]) is at most 500 nM. In addition, the Kd in assay [2] is at most 100 nM.
For the compound `CNc1ncc(-c2nc3ccc(N4CCOC(C(C)(C)F)C4)cn3n2)c2cc(NC(=O)C3CC3)ncc12` (single isomer, unassigned) [Example 1049], the IC50 in assay [1] (setting [3]) was at most 500 nM. For the same compound, the Kd in assay [2] is at most 100 nM.
In the case of `CNc1ncc(-c2nc3ccc(N4CCOC(C(C)(C)F)C4)cn3n2)c2cc(NC(=O)C3CC3)ncc12` (single isomer, unassigned) [Example 1050], the IC50 in assay [1] (setting [4]) was at most 500 nM. In addition, in assay [2], the Kd was at most 100 nM.
Turning to `CNc1ncc(-c2nc3cc(N4CCOCC4)ccc3o2)c2cc(NC(=O)[C@H]3C[C@H]3C(F)F)ncc12` (single isomer, unassigned) [Example 1064], the IC50 in assay [1] (setting [3]) is at most 500 nM. Moreover, the Kd in assay [2] is at most 100 nM.
Turning to `CNc1ncc(-c2nc3cc(N4CCOCC4)ccc3o2)c2cc(NC(=O)[C@@H]3C[C@@H]3C(F)(F)F)ncc12` (single isomer, unassigned) [Example 1066], the IC50 in assay [1] (setting [3]) is at most 500 nM. Also, the Kd in assay [2] was at most 100 nM.
Consider `CNc1ncc(-c2nc3cc(N4CCOCC4)ccc3o2)c2cc(NC(=O)[C@@H]3C[C@@H]3C(F)(F)F)ncc12` (single isomer, unassigned) [Example 1067], for which the IC50 in assay [1] (setting [4]) is at most 500 nM. In assay [2], the Kd is at most 100 nM.
`CNc1ncc(-c2nc3cc(N4CCOCC4)ccc3o2)c2cc(NC(=O)[C@@H]3C[C@@H]3C(F)F)ncc12` (single isomer, unassigned) [Example 1069]: the IC50 in assay [1] (setting [3]) was at most 500 nM. For the same compound, the Kd in assay [2] was at most 100 nM.
For the compound `CNc1ncc(C#Cc2ccc(N3CCOCC3)cc2)c2cc(NC(=O)[C@@H]3C[C@@H]3C(F)F)ncc12` (single isomer, unassigned) [Example 1074], the IC50 in assay [1] (setting [3]) is at most 500 nM. In addition, the Kd in assay [2] is at most 100 nM.
Taken in the same sequence, the figures for `CNc1ncc(C#Cc2ccc(N3CCOCC3)cc2)c2cc(NC(=O)[C@H]3C[C@H]3C(F)F)ncc12` (single isomer, unassigned) [Example 1075] were at most 500 nM and at most 100 nM.
